From PMC9571937, “Synthesis and Structure–Activity Relationship Studies of Pyrido [1,2-e]Purine-2,4(1H,3H)-Dione Derivatives Targeting Flavin-Dependent Thymidylate Synthase in Mycobacterium tuberculosis” (Molecules, 2022) come the findings set out here.

For one test, the target named is Mtb ThyX (Mycobacterium tuberculosis, UniProt P9WG57). Put plainly: M. tuberculosis ThyX NADPH oxidase assay. Format: biochemical. As to conditions: 50 μM, screening hits (Figure 1); read-out: % inhibition (ThyX).
Sequence of Mtb ThyX (P9WG57 whole entry): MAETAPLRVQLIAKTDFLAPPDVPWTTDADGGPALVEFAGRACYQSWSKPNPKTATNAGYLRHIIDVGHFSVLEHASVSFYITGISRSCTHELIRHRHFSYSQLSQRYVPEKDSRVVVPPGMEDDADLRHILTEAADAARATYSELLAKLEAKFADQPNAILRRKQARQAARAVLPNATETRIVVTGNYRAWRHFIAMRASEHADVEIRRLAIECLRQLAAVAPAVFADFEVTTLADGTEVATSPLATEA
`Cc1ccn2c(c1)nc1c(-c3ccc(OC(F)(F)F)cc3)nc(C(F)(F)F)nc12` [Compound 5]: the inhibition at 50 µM came to 13.2%.
On the same count and under the same terms, for `OB(O)c1ccc(Sc2nc(C(F)(F)F)nc3c2nc2ccccn23)cc1` [Compound 6] the value was 17.1%.

Still in this test, the particulars now being: 200 μM compound, NADPH oxidase assay, 50 µM FAD.
As to “1-[[p-(Dimethoxyphosphorylmethyl)phenyl]methyl]-3-(4-fluorophenyl)purino [9,8-a]pyridine-2,4-dione [Compound 13f]”, the “Inhibition % (Mtb ThyX)” value is given as 5.6%.
Turning to “3-(p-Fluorophenyl)-8-hept-1-ynyl-1H-purino [9,8-a]pyridine-2,4-dione [Compound 20d]”, the “Inhibition % (Mtb ThyX)” value stood at 0%.
Still for that read-out and setting: the same measure for “3-(p-Fluorophenyl)-8-hex-1-ynyl-1H-purino [9,8-a]pyridine-2,4-dione [Compound 20c]”: 18.6%.

The same test, now with this note: 200 μM compound, NADPH oxidase assay, 50 µM FAD; read-out: Inhibition % (Mtb ThyX).
In the case of `O=c1[nH]c2c(nc3ccccn32)c(=O)n1-c1ccc(Br)cc1` [Compound 9c, 3-(4-Bromophenyl)pyrido [1,2-e]purine-2,4(1H,3H)-dione], the inhibition at 200 µM was 52.2%.
Still for that read-out and setting: the same measure for `O=c1[nH]c2c(nc3ccccn32)c(=O)n1-c1ccc(C(F)(F)F)cc1` [Compound 9e, 3-(4-(Trifluoromethyl)phenyl)pyrido [1,2-e]purine-2,4(1H,3H)-dione]: 31.7%; for `COc1ccc(-n2c(=O)[nH]c3c(nc4ccccn43)c2=O)cc1` [Compound 9f, 3-(p-Methoxyphenyl)pyrido [1,2-e]purine-2,4(1H,3H)-dione]: 8.1%; for `O=c1[nH]c2c(nc3ccccn32)c(=O)n1-c1cccc(F)c1` [Compound 9g, 3-(3-Fluorophenyl)pyrido [1,2-e]purine-2,4(1H,3H)-dione]: 12.8%.
As to `O=c1[nH]c2c(nc3ccccn32)c(=O)n1-c1ccc(F)c(F)c1` [Compound 9h, 3-(3,4-Difluorophenyl)pyrido [1,2-e]purine-2,4(1H,3H)-dione], the inhibition at 200 µM worked out at 22.7%.
Still for that read-out and setting: the same measure for `O=c1[nH]c2c(nc3ccccn32)c(=O)n1-c1ccc(F)cc1F` [Compound 9i, 3-(2,4-Difluorophenyl)pyrido [1,2-e]purine-2,4(1H,3H)-dione]: 6.6%; for `Cc1ccc(-n2c(=O)[nH]c3c(nc4ccccn43)c2=O)cc1C` [Compound 9j, 3-(3,4-Dimethylphenyl)pyrido [1,2-e]purine-2,4(1H,3H)-dione]: 19.9%.
On the same count and under the same terms, the same measure for `O=c1[nH]c2c(nc3ccccn32)c(=O)n1Cc1ccccc1` [Compound 10a, 3-(Benzyl)pyrido [1,2-e]purine-2,4(1H,3H)-dione]: 22.3%; for `O=c1[nH]c2c(nc3ccccn32)c(=O)n1Cc1ccc(F)cc1` [Compound 10b, 3-(p-Fluorobenzyl)pyrido [1,2-e]purine-2,4(1H,3H)-dione]: 21.2%; for `O=c1[nH]c2c(nc3ccccn32)c(=O)n1Cc1ccc(C(F)(F)F)cc1` [Compound 10c, 3-(p-(Trifluoromethyl)benzyl)pyrido [1,2-e]purine-2,4(1H,3H)-dione]: 20.7%.
With `Cc1ccc(Cn2c(=O)[nH]c3c(nc4ccccn43)c2=O)cc1` [Compound 10d, 3-(p-Methylbenzyl)pyrido [1,2-e]purine-2,4(1H,3H)-dione], the inhibition at 200 µM was 20.2%.
On the same count and under the same terms, for `O=c1c2nc3ccccn3c2[nH]c(=S)n1-c1ccc(F)cc1` [Compound 11, 3-(4-Fluorophenyl)-2-thioxo-2,3-dihydropyrido [1,2-e]purin-4(1H)-one] the value was 19.8%; for `O=c1c2nc3ccccn3c2[nH]c(=S)n1Cc1ccccc1` [Compound 12, 3-Benzyl-2-thioxo-2,3-dihydropyrido [1,2-e]purin-4(1H)-one], 0%; for `O=c1c2nc3ccccn3c2n(Cc2ccccc2)c(=O)n1-c1ccc(F)cc1` [Compound 13a, 1-Benzyl-3-(4-fluorophenyl)purino [9,8-a]pyridine-2,4-dione], 23.2%.
As to `Cc1ccc(Cn2c(=O)n(-c3ccc(F)cc3)c(=O)c3nc4ccccn4c32)cc1` [Compound 13b, 3-(p-Fluorophenyl)-1-[(p-methylphenyl)methyl]purino[9,8-a]pyridine-2,4-dione], the inhibition at 200 µM was 10.9%.
Same read-out and setting: for `N#Cc1ccc(Cn2c(=O)n(-c3ccc(F)cc3)c(=O)c3nc4ccccn4c32)cc1` [Compound 13c, 4-[[3-(p-Fluorophenyl)-2,4-dioxo-purino[9,8-a]pyridin-1-yl]methyl]benzonitrile] the value was 26.5%; for `O=c1c2nc3ccccn3c2n(Cc2ccc([N+](=O)[O-])cc2)c(=O)n1-c1ccc(F)cc1` [Compound 13d, 3-(p-Fluorophenyl)-1-[(p-nitrophenyl)methyl]purino [9,8-a]pyridine-2,4-dione], 0%; for `COC(=O)c1ccc(Cn2c(=O)n(-c3ccc(F)cc3)c(=O)c3nc4ccccn4c32)cc1` [Compound 13e, Methyl 4-[[3-(p-fluorophenyl)-2,4-dioxo-purino [9,8-a]pyridin-1-l]methyl]benzoate], 44.8%.
In the case of `Cc1ccn2c(c1)nc1c(=O)n(-c3ccc(F)cc3)c(=O)[nH]c12` [Compound 18a, 3-(p-Fluorophenyl)-7-methylpyrido [1,2-e]purine-2,4(1H,3H)-dione], the inhibition at 200 µM is 45.8%.
Regarding `Cc1ccc2nc3c(=O)n(-c4ccc(F)cc4)c(=O)[nH]c3n2c1` [Compound 18b, 3-(p-Fluorophenyl)-8-methylpyrido [1,2-e]purine-2,4(1H,3H)-dione], the inhibition at 200 µM is 13.2%.
The same measure, in the same setting: the same measure for `O=c1[nH]c2c(nc3cc(Br)ccn32)c(=O)n1-c1ccc(F)cc1` [Compound 19a, 7-Bromo-3-(p-fluorophenyl)pyrido [1,2-e]purine-2,4(1H,3H)-dione]: 8.8%; for `O=c1[nH]c2c(nc3ccc(Br)cn32)c(=O)n1-c1ccc(F)cc1` [Compound 19b, 8-Bromo-3-(p-fluorophenyl)pyrido [1,2-e]purine-2,4(1H,3H)-dione]: 5.4%.
On to `O=c1[nH]c2c(nc3cc(C#CCCc4ccccc4)ccn32)c(=O)n1-c1ccc(F)cc1` [Compound 20a, 3-(p-Fluorophenyl)-7-(4-phenylbut-1-ynyl)-1H-purino [9,8-a]pyridine-2,4-dione], for which the inhibition at 200 µM was 32%.
On the same count and under the same terms, for `CCCc1ccc(C#Cc2ccn3c(c2)nc2c(=O)n(-c4ccc(F)cc4)c(=O)[nH]c23)cc1` [Compound 20b, 3-(p-Fluorophenyl)-7-[2-(4-propylphenyl)ethynyl]-1H-purino [9,8-a]pyridine-2,4-dione] the value was 0%; for `CCCCCCC#Cc1ccn2c(c1)nc1c(=O)n(-c3ccc(F)cc3)c(=O)[nH]c12` [Compound 20e, 3-(p-Fluorophenyl)-7-oct-1-ynyl-1H-purino [9,8-a]pyridine-2,4-dione], 45.1%.
Regarding `CCCCCCCC(=O)NCC#Cc1ccn2c(c1)nc1c(=O)n(-c3ccc(F)cc3)c(=O)[nH]c12` [Compound 20f, N-[3-[3-(p-fluorophenyl)-2,4-dioxo-1H-purino [9,8-a]pyridin-7-yl]prop-2-ynyl]octanamide], the inhibition at 200 µM amounted to 18.8%.

Still in this test, the particulars now being: 200 µM, screening of in-house compound libraries; read-out: ThyX inhibitory effect.
Turning to `Cc1ccn2c(c1)nc1c(-c3ccc(OC(F)(F)F)cc3)nc(C(F)(F)F)nc12` [Compound 5], the inhibition at 200 µM worked out at 23.1%.
On the same count and under the same terms, the same measure for `OB(O)c1ccc(Sc2nc(C(F)(F)F)nc3c2nc2ccccn23)cc1` [Compound 6]: 33.2%.
